We go through three compounds from patent US10933008B1, “Silicon-based cannabidiol derivatives and compositions thereof” (Gelest Technologies, Inc., priority 2015, dated 2021).

The nature of series [1]: Solubility study in common oils, silicones and water. The series is classed as physicochemical. The text has this: It may be concluded that the CBD isolate was soluble in all oils and insoluble in all silicones and water. The CBD derivatives were insoluble in water and soluble in both oils and silicones (heating was required for the derivative of Example 1). […] Thus, the presence of the silicon-containing groups increased the solubility of CBD in all silicones tested.

The nature of series [2]: Release of CBD from the infused silicone elastomer on water washes, TLC analysis. The settings on record: hydrolyzed sample and water washes compared to CBD isolate. The series is classed as physicochemical. How it is done:
A solution was prepared by adding 5 g of the trisiloxanyl-cannabidiol product (IV) prepared in Example 3 and 5 g of n-propylheptamethyltrisiloxane (commercially available from Gelest) to a 20 ml vial. Sample 1 was prepared by inserting apiece of silicone elastomer (1.5 cm×2.5 cm, 0.35 g, commercially available from Gelest) into a 20 ml vial containing the solution and letting the vial sit with a closed lid for 30 minutes to absorb the solution into the elastomer. Sample 2 (control) was an identical piece of silicone elastomer which was inserted into a 20 ml vial containing hemp seed oil and let sit with a closed lid for 30 minutes to absorb the hemp oil into the elastomer.
Sample 1 was washed in water three consecutive times. For each wash, the sample was placed in a vial containing 10 g of DI water and shaken for 10 seconds. The water from each wash was collected and analyzed for the presence of CBD using a basic thin-layer chromatography (TLC) method using 20% ethyl acetate in hexanes. CBD isolate was compared to a hydrolyzed sample of trisiloxanyl-cannabidiol product (IV) as well as all three washes.

As to `CCCCCc1cc(O)c([C@H]2C=C(C)CC[C@H]2C(C)C[Si](C)(C)O[Si](C)(C)O[Si](C)(C)O[Si](C)(C)O[Si](C)(C)CCCC)c(O)c1` (stereo partly drawn) [Example 2, 2-[(1R,6R)-3-Methyl-6-(1-methyl-2-(1-butyl-1,1,3,3,5,5,7,7-octamethyltetrasiloxy-dimethylsilyl)ethyl)-2-cyclohexen-1-yl]-5-pentyl-1,3-benzenediol], the “Solubility in castor oil” value in series [1] (castor oil, even with partial heating) is “only partially soluble”.
Consider `C=C(C)[C@@H]1CCC(C)=C[C@H]1c1c(O)cc(CCCCC)cc1O` [CBD, 2-[(1R,6R)-3-methyl-6-(1-methylethenyl)-2-cyclohexen-1-yl]-5-pentyl-1,3-benzenediol, reference compound], for which the “Solubility in oils” value in series [1] (all oils tested) is reported as “soluble”. Also, the “Solubility in silicones” value in series [1] (all silicones tested) was “insoluble”. In addition, the “Solubility in water” value in series [1] (water) is “insoluble”.
In the case of `C=C(C)[C@@H]1CCC(C)=C[C@H]1c1c(O)cc(CCCCC)cc1O[Si](C)(O[Si](C)(C)C)O[Si](C)(C)C` [Example 3, 2-[(1R,6R)-3-Methyl-6-(1-methylethenyl)-2-cyclohexen-1-yl]-5-pentyl-1-(bis(trimethylsiloxy)methylsiloxy)-3-ol-benzene], the “Hydrolysis to release CBD (TLC)” value in series [2] was “underwent hydrolysis to release CBD”.
